Assay results as given in patent US11925624B2, “Methods of administering anti-fibrotic therapy” (GENENTECH, INC., priority 2016, dated 2024).
Values joined by “and” are separate entries in the source; they are usually repeats but may differ in a detail not shown here. Identical values can stand only once. “Also recorded” adds a separate entry of the source. Like-named read-outs stand apart in the source and are kept apart here.

Test: Phase 1 single ascending dose (Part A) pharmacokinetics, fasted state
Format: in vivo, human
Details: for % AUCextrap: arithmetic mean; for AUC(0-inf) / AUC(0-t) / Cmax / Vd/F / half-life / Tmax / CL renal: human; for AUC(0-inf) / AUC(0-t) / Cmax / Vd/F / half-life / Tmax: plasma
Protocol: A Phase 1, randomized, blinded, placebo-controlled safety, tolerability, and pharmacokinetic study of Compound I in 80 healthy adult subjects was conducted.
This study was a randomized, blinded, placebo-controlled, ascending-dose study to evaluate the safety, tolerability, and pharmacokinetic (PK) of single (Part A) and multiple (Part B) doses of Compound I in healthy subjects. In addition, the effects of a standard high-fat breakfast, standard low-fat breakfast, and pretreatment and co-administration of a proton pump inhibitor (PPI) on the tolerability and PK of a single dose of Compound I were investigated in 2 groups in Part A. All subjects received their full dose of Compound I, administered as the appropriate number of either 25 or 200 mg tablets. The high fat breakfast comprised the following: total energy: 895 kcal; total fat: 61 g; total protein: 41 g; total carbohydrate: 46 g. The low fat breakfast comprised the following: total energy: 611 kcal; total fat: 14.7 g; total protein: 20.3 g; total carbohydrate: 106.3 g.
In Part A, 56 subjects were studied in 6 groups (Groups A1 to A6) with each of Groups A1, A2, A3, A5, and A6 composed of 8 subjects (6 received Compound I, 2 received placebo) and Group A4 was composed of 16 subjects (12 received Compound I, 4 received placebo). The first dose group (A1) included a sentinel cohort of 2 subjects (1 subject received Compound I and 1 subject received placebo) dosed 48 hours in advance of the remainder of the group.
All subjects in Groups A1 through A6 participated in Treatment Period 1 and received the fasted treatment regimen. In Treatment Period 1, subjects resided at the Clinical Research Unit (CRU) from Day −1 (the day before dosing) to Day 4 (72 hours post-dose). In Treatment Period 1, all doses were administered on the morning of Day 1, after an overnight fast of at least 8 hours. In Groups A1, A2, A3, and A6, each subject received only a single dose of Compound I (25 mg in Group A1, 75 mg in Group A2, 200 mg in Group A3, and 1600 mg in Group A6) or placebo (per the randomization schedule) during the study.
In Part A, all doses in Treatment Period 1 were administered after an overnight fast of at least 8 hours. For the A4 cohort, in Treatment Periods 2 and 3, doses were administered 30 minutes after starting and approximately 10 minutes after completing a high- or low-fat breakfast. In Treatment Period 4, the dose was administered after an overnight fast and following administration of a PPI (PPI was comprised of 3 doses of rabeprazole 20 mg, starting on Day −2 and with the final dose 2 hours before Compound I administration on Day 1). For Group A5, doses during Treatment Period 2 were administered 30 minutes after starting and approximately 10 minutes after completing a low-fat standard breakfast on the morning of Day 1, and doses during Treatment Period 3 were administered on Day 1 after a low-fat meal and following administration of a PPI for 3 days (given as 3 QD doses, with the final PPI dose at 2 hours prior to study drug administration on Day 1).

[1] = 75 mg vs 25 mg (3-fold increase in dose)
[2] = 800-mg dose level (32.0-fold increase in dose)

AUC0-t (norm) (25 mg single dose (A1)): 13400 hr*ng/mL/(mg/kg)
AUC0-∞ (norm) (25 mg single dose (A1)): 13600 hr*ng/mL/(mg/kg)
Ae0-24 (25 mg single dose (A1)): 19.2 mg
CL/F (25 mg single dose (A1)): 90.5 mL/min
CL/F(norm) (25 mg single dose (A1)): 1.23 (mL/min)/kg
Cmax (norm) (25 mg single dose (A1)): 2700 ng/mL/(mg/kg)
fe0-24 (25 mg single dose (A1)): 76.9%
t1/2 (25 mg single dose (A1)): 3.61 h
λZ (25 mg single dose (A1)): 0.192 h⁻¹
% AUCextrap (25 mg single dose (A1)): 1.25%
AUC0-t (norm) (75 mg single dose (A2)): 12600 hr*ng/mL/(mg/kg)
AUC0-∞ (norm) (75 mg single dose (A2)): 12600 hr*ng/mL/(mg/kg)
Ae0-24 (75 mg single dose (A2)): 54.8 mg
CL/F (75 mg single dose (A2)): 96.0 mL/min
CL/F(norm) (75 mg single dose (A2)): 1.32 (mL/min)/kg
Cmax (norm) (75 mg single dose (A2)): 2180 ng/mL/(mg/kg)
fe0-24 (75 mg single dose (A2)): 73.0%
t1/2 (75 mg single dose (A2)): 5.02 h
λZ (75 mg single dose (A2)): 0.138 h⁻¹
% AUCextrap (75 mg single dose (A2)): 0.486%
Fold increase in AUC0-t [1]: 2.9 fold
Fold increase in AUC0-∞ [1]: 2.8 fold
Fold increase in Cmax [1]: 2.5 fold
AUC0-t (norm) (200 mg single dose (A3)): 12000 hr*ng/mL/(mg/kg)
AUC0-∞ (norm) (200 mg single dose (A3)): 12100 hr*ng/mL/(mg/kg)
Ae0-24 (200 mg single dose (A3)): 105 mg
CL/F (200 mg single dose (A3)): 102 mL/min
CL/F(norm) (200 mg single dose (A3)): 1.38 (mL/min)/kg
Cmax (norm) (200 mg single dose (A3)): 1140 ng/mL/(mg/kg)
fe0-24 (200 mg single dose (A3)): 52.5%
λZ (200 mg single dose (A3)): 0.0602 h⁻¹
% AUCextrap (200 mg single dose (A3)): 0.969%
AUC0-t (norm) (400 mg single dose (A4)): 9420 hr*ng/mL/(mg/kg)
AUC0-∞ (norm) (400 mg single dose (A4)): 9650 hr*ng/mL/(mg/kg)
Ae0-24 (400 mg single dose (A4)): 133 mg
CL/F (400 mg single dose (A4)): 121 mL/min
CL/F(norm) (400 mg single dose (A4)): 1.73 (mL/min)/kg
Cmax (norm) (400 mg single dose (A4)): 790 ng/mL/(mg/kg)
fe0-24 (400 mg single dose (A4)): 33.3%
λZ (400 mg single dose (A4)): 0.0594 h⁻¹
% AUCextrap (400 mg single dose (A4)): 2.37%
AUC0-t (norm) (800 mg single dose (A5)): 6700 hr*ng/mL/(mg/kg)
AUC0-∞ (norm) (800 mg single dose (A5)): 7080 hr*ng/mL/(mg/kg)
Ae0-24 (800 mg single dose (A5)): 172 mg
CL/F (800 mg single dose (A5)): 169 mL/min
CL/F(norm) (800 mg single dose (A5)): 2.35 (mL/min)/kg
Cmax (norm) (800 mg single dose (A5)): 532 ng/mL/(mg/kg)
fe0-24 (800 mg single dose (A5)): 21.5%
λZ (800 mg single dose (A5)): 0.0433 h⁻¹
% AUCextrap (800 mg single dose (A5)): 5.17%
Increase in AUC and Cmax (1600 mg dose compared to 800 mg dose): no significant increase
AUC0-t (norm) (1600 mg single dose (A6)): 3090 hr*ng/mL/(mg/kg)
AUC0-∞ (norm) (1600 mg single dose (A6)): 3740 hr*ng/mL/(mg/kg)
Ae0-24 (1600 mg single dose (A6)): 145 mg
CL/F (1600 mg single dose (A6)): 307 mL/min
CL/F(norm) (1600 mg single dose (A6)): 4.46 (mL/min)/kg
Cmax (norm) (1600 mg single dose (A6)): 235 ng/mL/(mg/kg)
fe0-24 (1600 mg single dose (A6)): 9.1% and 9.09%
λZ (1600 mg single dose (A6)): 0.0351 h⁻¹
% AUCextrap (1600 mg single dose (A6)): 6.57%
Dose proportionality of systemic exposure (Cmax and AUC) (200-mg dose and greater): less than proportional
Fold increase in AUC0-t [2]: 16.4 fold
Fold increase in AUC0-∞ [2]: 17.1 fold
Fold increase in Cmax [2]: 6.5 fold
AUC(0-inf) (oral, 25 mg single dose (A1)): 4600 ng·h/mL
AUC(0-t) (oral, 25 mg single dose (A1)): 4550 ng·h/mL
Cmax (oral, 25 mg single dose (A1)): 913 ng/mL
Vd/F (oral, 25 mg single dose (A1), read-out: Vz/F): 28.3 L
Vd/F (oral, 25 mg single dose (A1), read-out: Vz/F(norm)): 0.384 L/kg
half-life (oral, 25 mg, 25 mg single dose (A1)): 3.6 h
Tmax (oral, 25 mg, 25 mg single dose (A1), median, read-out: tmax): 1.5 h
AUC(0-inf) (oral, 75 mg single dose (A2)): 13000 ng·h/mL
AUC(0-t) (oral, 75 mg single dose (A2)): 13000 ng·h/mL
Cmax (oral, 75 mg single dose (A2)): 2250 ng/mL
Vd/F (oral, 75 mg single dose (A2), read-out: Vz/F): 41.7 L
Vd/F (oral, 75 mg single dose (A2), read-out: Vz/F(norm)): 0.574 L/kg
half-life (oral, 75 mg, 75 mg single dose (A2)): 5 h
Tmax (oral, 75 mg, 75 mg single dose (A2), median, read-out: tmax): 1.25 h
Tmax (oral, 75 mg, 25 and 75 mg doses, read-out: tmax, latest individual value): ≤ 2.5 h
AUC(0-inf) (oral, 200 mg single dose (A3)): 32600 ng·h/mL
AUC(0-t) (oral, 200 mg single dose (A3)): 32300 ng·h/mL
Cmax (oral, 200 mg single dose (A3)): 3060 ng/mL
Vd/F (oral, 200 mg single dose (A3), read-out: Vz/F): 102 L
Vd/F (oral, 200 mg single dose (A3), read-out: Vz/F(norm)): 1.37 L/kg
half-life (oral, 200 mg, 200 mg single dose (A3)): 10.2 h
Tmax (oral, 200 mg, 200 mg single dose (A3), median, read-out: tmax): 1.75 h
AUC(0-inf) (oral, 400 mg single dose (A4)): 55100 ng·h/mL
AUC(0-t) (oral, 400 mg single dose (A4)): 53800 ng·h/mL
Cmax (oral, 400 mg single dose (A4)): 4510 ng/mL
Vd/F (oral, 400 mg single dose (A4), read-out: Vz/F): 122 L
Vd/F (oral, 400 mg single dose (A4), read-out: Vz/F(norm)): 1.74 L/kg
half-life (oral, 400 mg, 400 mg single dose (A4)): 11.7 h
Tmax (oral, 400 mg, 400 mg single dose (A4), median, read-out: tmax): 2.5 h
AUC(0-inf) (oral, 800 mg single dose (A5)): 78700 ng·h/mL
AUC(0-t) (oral, 800 mg single dose (A5)): 74500 ng·h/mL
Cmax (oral, 800 mg single dose (A5)): 5910 ng/mL
Vd/F (oral, 800 mg single dose (A5), read-out: Vz/F): 234 L
Vd/F (oral, 800 mg single dose (A5), read-out: Vz/F(norm)): 3.26 L/kg
half-life (oral, 800 mg, 800 mg single dose (A5)): 11.3 h
Tmax (oral, 800 mg, 800 mg single dose (A5), median, read-out: tmax): 1.8 h
AUC(0-inf) (oral, 1600 mg single dose (A6)): 86900 ng·h/mL
AUC(0-t) (oral, 1600 mg single dose (A6)): 73600 ng·h/mL
Cmax (oral, 1600 mg single dose (A6)): 5580 ng/mL
Vd/F (oral, 1600 mg single dose (A6), read-out: Vz/F): 525 L
Vd/F (oral, 1600 mg single dose (A6), read-out: Vz/F(norm)): 7.62 L/kg
half-life (oral, 1600 mg, 1600 mg single dose (A6)): 19.8 h
Tmax (oral, 1600 mg, 1600 mg single dose (A6), median, read-out: tmax): 2 h
Tmax (oral, higher dose levels (200 to 1600 mg), read-out: tmax, latest individual value): ≤ 6 h
Tmax (po, single oral doses 25 to 1600 mg, read-out: Median tmax, range across all doses): 1.3 to 2.5 h
CL renal (urine and plasma, oral, 400 mg single dose (A4)): 49.7 mL/min
CL renal (urine and plasma, oral, 800 mg single dose (A5)): 48.5 mL/min
CL renal (urine and plasma, oral, 1600 mg single dose (A6)): 47.6 mL/min
CL renal (urine, oral, 25 mg single dose (A1)): 70.5 mL/min
CL renal (urine, oral, 75 mg single dose (A2)): 71.8 mL/min
CL renal (urine, oral, 200 mg single dose (A3)): 63.5 mL/min
SMILES: Cn1cc(-c2cn(-c3ccc(OC(F)(F)F)cc3)c(=O)c3ncn(C)c23)cn1 [Compound I]
Dose proportionality of systemic exposure (Cmax and AUC) (between 25 and 75 mg): dose-proportional; also recorded: consistent with linear PK
